The test system of test [1] is esophageal adenocarcinoma. The test is described as follows: combination with CAPDX regimen, esophageal adenocarcinoma patients. It is filed as in vivo, human. The settings on record: Chemo Backbone CAPOX, 0 prior lines. The protocol: The effects of 2-acetylnaphtho[2,3-b]furan-4,9-dione in combination with capecitabine as part of a CAPDX regimen was assessed in adult patients with esophageal adenocarcinoma.
Four patients aged 58-82 who were pretreated with 0-3 lines of prior treatment received oral administration of 2-acetylnaphtho[2,3-b]furan-4,9-dione twice daily together with CAPDX. For example, 2-acetylnaphtho[2,3-b]furan-4,9-dione was administered at a dose of 240 mg BID or 480 mg BID in combination with CAPDX until progression of disease, unacceptable toxicity, or other discontinuation criterion was met. CAPDX was administered orally (capecitabine) and IV (oxaliplatin). Capecitabine 850 mg/m^2 was administered orally twice-daily for 14 consecutive days and repeated every 21 days or until progression of disease, unacceptable toxicity, or other discontinuation criterion was met. Oxaliplatin 130 mg/m^2 was administered IV and repeated every 21 days thereafter. If capecitabine was tolerated at the 850 mg/m^2 twice daily dose, dosage was increased to 1000 mg/m^2 twice daily as tolerated after the first cycle.

The next test relates to FaDu cancer stem cells. The test is described as follows: stemness gene expression versus chemo- and targeted therapeutics. In kind it is cell-based. Conditions: 24 hours, 2-acetylnaphtho[2,3-b]furan-4,9-dione 2 mM, sunitinib 20 mM, gemcitabine 2 mM, carboplatin 32 mM, FIGS. 4(A)-(D). How it is done:
FIGS. 4(A)-(D) depict FaDu cancer stem cells that were treated for 24 hours with DMSO and: (i) 2-acetylnaphtho[2,3-b]furan-4,9-dione (2 mM) (FIG. 4(A)), (ii) sunitinib (20 mM) (FIG. 4(B)), (iii) gemcitabine (2 mM) (FIG. 4(C)), or (iv) carboplatin (32 mM) (FIG. 4(D)).

The subject of the next test is p-Stat3 and β-catenin. The test is described as follows: cancer stem cell markers in cancer xenograft models (immunofluorescence). The settings on record: human colon cancer xenograft Tumor (SW480) in nude mice, tumors harvested after first dosing; FIG. 5. In kind it is in vivo, athymic nude mice. The protocol:
The effects of 2-acetylnaphtho[2,3-b]furan-4,9-dione on cancer stem cell markers was also examined in cancer xenograft models with and without irinotecan. Human cancer cells were subcutaneously implanted into the right flank of 5-7 weeks old female athymic nude mice. When tumor size reached 200 mm^3, animals were treated with 2-acetylnaphtho[2,3-b]furan-4,9-dione, irinotecan, or a combination of 2-acetylnaphtho[2,3-b]furan-4,9-dione and irinotecan. Tumors were harvested after first dosing.
The harvested tissues were fixed in 3.7% neutral buffered formaldehyde at 4° C. for overnight. The paraffin was embedded, cut to about 5 microns, and affixed onto positively charged slides. After being baked and de-paraffinized, the slides with tumor or control tissues were incubated in 10 mM Sodium Citrate (pH 6.0) for 10 minutes. After antigen retrieval, slides were probed with primary antibodies P-STAT3 (rabbit, Cell Signaling, 1:100), 13-Catenine (mouse, Santa Cruz, 1:400) at 4° C. overnight, and then Alexa Fluor fluorescent dyes-conjugated secondary antibodies (1:500, Invitrogen). After mounting with ProLong mounting medium with DAPI (Invitrogen), the slides were examined under a Zeiss fluorescence microscope with 20× objective, and analyzed with Zen software.
For orientation: In xenograft studies the graft and the host belong to different species.

For the compound `CC(=O)c1cc2c(o1)C(=O)c1ccccc1C2=O` [2-acetylnaphtho[2,3-b]furan-4,9-dione], the “Best Response, regression” value in test [1] (Patient 0012, BBI608 240 mg bid) is given as 50%; in test [1] (Patient 0021, BBI608 480 mg bid), 24%. For the same compound, the “expression of self-renewal / CSC genes (β-Catenin, Nanog, Smo, Sox2)” value with FaDu cancer stem cells is “decreased expression”. In addition, the “expression of p-Stat3 and β-catenin stem cell markers” value in the test with p-Stat3 and β-catenin is on record as “dramatically reduced expression”.

Values taken from patent US20180098959A1, “METHODS FOR TREATING CANCER” (BOSTON BIOMEDICAL, INC., priority 2015, published 2018).
